Measured values taken from patent publication US20010049389A1, “Arthropod-controlling composition” (priority 2000, published 2001).

What was measured:
Format in all cases: in vivo
[1] = system: adult American cockroaches (Periplaneta americana); test: Test Example 4: smoking formulation in 28 m^3 chamber, American cockroaches; settings: 10 g smoking (Preparation example 25) in 28 m^3 chamber
Source text: In a test chamber of 3 m×4 m and 2.3 m in height (28 m^3), two plastic cups were put at two corners, wherein each cup has ten (5 males and 5 females) adult German cockroaches (Blattella germanica) therein. Ten grams (10 g) of the smoking obtained in Preparation example 25 and 50g of magnesium oxide were charged into each of the cells in an aluminum container having an aluminum wall. The cell charged magnesium oxide has small holes. The aluminum container was dipped into water in the plastic container set in the test chamber. The smoking was heated to release the vaporized active ingredient by the reaction heats of magnesium oxide with water. After 2 hours, knock-down percentage was observed. Further, the cockroaches were transferred to a clean plastic cup and given foods and water. The mortality was observed after 7 days.
Furthermore, the same tests were performed except that six (3 males and 3 females) adult smokybrown cockroaches (Periplaneta fuliginosa) and six (3 males and 3 females) adult American cockroaches (Periplaneta americana) were used in place of ten German cockroaches.

[2] = system: termites (Coptotermes formosanus); test: Test Example 9: treated soil after 3 months storage, termites; settings: 10 ml of 0.5% (w/w) solution in 200 g soil, kept 3 months at 40° C. in the dark, after 10 days
Protocol: The Pyrone Compound was dissolved in water to give a 10 ml solution having 0.5% (w/w) of a concentration. The solution was mixed with 200 g of soil and air-dried. After keeping for 3 months at 40° C. and in the dark, about 10 g of the soil were put on a plastic Petri dish having 9 cm in diameter. The soil was wetted with distilled water and 10 termites (Coptotermes formosanus) were released thereon. After 10 days, the termites were observed and the percent moribund was 100%.

[3] = system: female adult common mosquitoes (Culex pipiens pallens); test: Test Example 2: oil solution spray in glass chamber, knock-down of common mosquitoes; settings: 0.7 ml of 0.5% oil solution sprayed in 0.34 m^3 glass chamber, two repetitions
Protocol: Ten (5 males and 5 females) adult houseflies (Musca domestica) were released in a glass chamber (70 cm cube, capacity: 0.34 m^3). Seven-tenth milliliter (0.7 ml) of the oil solution obtained in Preparation example 9 was applied into the chamber with a spray gun at a pressure of 0.9 kg/cm^2. Fifteen minutes after spraying, the knocked-down houseflies were counted. Reference compound was also tested.
The same procedure was performed as in Test example 1 except that ten female adult common mosquitoes (Culex pipiens pallens) in place of houseflies were used. As a result of two repetitions, the knock-down percentage at 15 minutes after spraying was 100%.

[4] = system: whiteflies (Bemisia argentifolii); test: Test Example 16: foliar spray on cabbage, whiteflies; settings: 500 ppm dilution of flowable (Preparation example 7), 30 ml sprayed, after 6 days
Protocol: About 50 whiteflies (Bemisia argentifolii) were put on a cabagge leaf (in first-leaf stage) grown in a 90 ml plastic cup.
The formulation obtained in Preparation example 7 was diluted with water containing a spreading agent (Tokurino produced by Nihon Nohyaku Co.) to make the concentration of the Pyrone Compound to 500 ppm. Thirty milliliters (30 ml) of the dilution were sprayed to the cabbage (in first-leaf stage) and air-dried. The plastic pot was allowed to stand at 25±2° C. in a greenhouse. After 6 days, the mortality was 90% or more.

[5] = system: adult pill bugs (Armadillidium vulgare); test: Test Example 12: oil-based aerosol spray, pill bugs; settings: about 450 mg of 1.0% oil-based aerosol sprayed, after 3 days
Protocol: According to Preparation examples 10-14, 1.0% oil-based aerosol of the Pyrone Compound was obtained. A container (8.75 cm in diameter, 7.5 cm in height, bottom covered 16-mesh iron net and inside wall painted butter for preventing tested pill bugs to escape) having 5 adult pill bugs (Armadillidium vulgare) therein was set on the bottom center of a glass cylinder having 20 cm in diameter and 60 cm in height. About 450 mg of the above oil-based aerosol were sprayed to the pill bugs from the upper part of the cylinder. After 30 seconds, the pill bugs were taken out and put into a clean plastic cup having soil and dead leaves therein. The pill bugs were given food and water and observed after 3 days. The tests were repeated twice. The mortality was 100%. Reference compound was also tested and the mortality was 40%.

ants (Formica japonica) = test: Test Example 14: oil-based aerosol spray, ants; settings: about 450 mg of 1.0% oil-based aerosol sprayed, after 2 days
Protocol: According to Preparation examples 10-14, 1.0% oil-based aerosol of the Pyrone Compound was obtained. In a 200 cc plastic cup having inside wall painted talc for preventing tested ants to escape, about 30 g of soil were set and 10 ants (Formica japonica) were release thereon. The plastic cup was set on the bottom center of a glass cylinder having 20 cm in diameter and 60 cm in height. About 450 mg of the above oil-based aerosol were sprayed to the ants from the upper part of the cylinder. After 10 seconds, the ants were taken out and put into a clean plastic cup having a piece of watermelon peel as food therein. After 2 days, the mortality was observed and the result was 70%.

[6] = system: adult German cockroaches (Blattella germanica); test: Test Example 21: total-release aerosol in 28 m^3 chamber, German cockroaches; settings: total-release aerosol (Preparation example 16) in 28 m^3 chamber, after 2 hours
Protocol: In a test chamber of 3 m×4 m and 2.3 m in height (28 m^3), two plastic cups were put at two corners, wherein each cup has ten (5 males and 5 females) adult German cockroaches (Blattella germanica) therein. The formulation obtained in Preparation example 16 was set in the center of the bottom and the contents of the aerosol were totally released. After 2 hours, the knock-down percentage was 100%.

[7] = system: adult copra mites (Tyrophagus putrescentiae); test: Test Example 11: treated drawing paper, copra mites; settings: drawing paper 800 mg/m^2, 25° C., 75% humidity, 24 hours
Protocol: On a black drawing paper having 38 mm in diameter, 0.2 ml of an acetone solution of the Pyrone Compound was added dropwise and air-dried. The treated dosage was 800 mg/m^2. The drawing paper was set on an aluminum plate having 38 mm in diameter and adhesives were put on the edge to prevent for tested mites to escape. About 30 adult copra mites (Tyrophagus putrescentiae) were released on the drawing paper and kept at 25° C. and 75% of humidity for 24 hours. After that, the mortality was observed. The result was 93%.

[8] = system: eggs of peach fruit moth (Carposina niponensis); test: Test Example 20: treated artificial food, peach fruit moth eggs; settings: 1 ml of 500 ppm dilution (Preparation example 2) in 6 g artificial food, after 10 days
Protocol: The formulation obtained in Preparation example 2 was diluted with water to make the concentration of the Pyrone Compound to 500 ppm. One milliliter (1 ml) of the dilution was added to 6 g of artificial food (Insecta LF produced by Nihon Nosankogyo Co.) in plastic cup having 5.5 cm in diameter. About 50 eggs of peach fruit moth (Carposina niponensis) laid on nylon cloth were put into the plastic cup. After 10 days, the ovicidal effect was 90% or more.

Question: For Cc1cc(O)c(C(=O)CC(C)C)c(=O)o1 [The Pyrone Compound], which “Knock-down percentage (%)” value ([1]; after 2 hours) is on record?
Answer: 100%

Question: What about the “Mortality (%)” value ([1]; after 7 days) of the same molecule?
Answer: 75%

Question: And the percent moribund [2]?
Answer: 100%

Question: And the “knock-down percentage at 15 minutes after spraying” value [3]?
Answer: 100%

Question: And the mortality [4]?
Answer: ≥ 90%

Question: And the mortality [5]?
Answer: 100%

Question: What about the mortality (ants (Formica japonica)) of the same molecule?
Answer: 70%

Question: What about the knock-down percentage [6] of the same molecule?
Answer: 100%

Question: And the mortality [7]?
Answer: 93%

Question: And the ovicidal effect [8]?
Answer: ≥ 90%
